Measured values taken from patent US4704277A, “Methods of treating bone disorders” (Sloan-Kettering Institute for Cancer Research, priority 1985, dated 1987).

Tests used:
bone = settings: cited from earlier work
[1] = patients treated in clinical testing; cited from earlier work
bone tissue = experiment: Histological studies of bone tissue for cytotoxicity
Source text: (§1) Cytotoxicity studies were undertaken to determine if gallium nitrate was cytotoxic to bone tissue. […] At this dose and time, a 20% decrease in ^3 H-thymidine incorporation into DNA was seen.

bone hydroxyapatite = experiment: Wide angle X-ray diffraction of powdered bone (hydroxyapatite crystal size/perfection, B002); type: in vivo, Sprague-Dawley rats; settings: for BOO2 (002 line width at half maximum): gallium treated rats, n=11
Procedure: (§2) Young female (120 g) Sprague-Dawley rats received a course of injections with 0.5 or 5.0 mg gallium nitrate, every other day. The 0.5 mg concentration is approximately equivalent (on a weight/weight basis) to the dose used to treat patients with cancer-related hypercalcemia by Warrell, et. al., supra. The animals received 7 interperitoneal injections over a 9-14 day period. Control groups were injected with carrier only. […] To obtain bone samples the rats were anesthetized and then sacrificed. The long bones were removed and cleaned of all muscle and connective tissue. The metaphyseal (ends containing the growth plate) and diaphyseal (shaft) portions of the bones were separated using a dissecting microscope. The bone pieces were then split and cleaned of all visible marrow, frozen and lyophilized. The split, dried, marrow-free bone fragments were pulverized in a liquid nitrogen cooled colloid mill to produce bone powder. Aliquots of bone particles were used for: (a) ash weight determination, (b) measurement of Ga, Ca and P content and (c) X-ray diffraction analysis. A portion of one bone particle preparation was sieved to uniform size using an #325 stainless steel mesh. Approximately 50 mg of the sieved-particle bone was then dispersed in bromoform:toluene, density=2.0 g/cc (as measured with a pynconometer). The suspension was centrifuged in the cold at 100 x G for 15 minutes. The suspended particles, representing newly formed mineral bone, density <2.0 g/cc were removed, washed with acetone then dried. The pelleted particles, density >2.0 g/cc were similarly washed with acetone and dried. Both the light and heavy density fractions were analyzed for Ga and Ca content.
Aliquots of the powdered bone were subjected to wide angle x-ray diffraction using Cu K(alpha) radiation. Samples were rapidly scanned from 4° 2.phi. to 70° 2.phi. to detect the presence of phases other than hydroxyapatite. Triplicate slow scans from 24° to 28° 2.phi. were used to estimate hydroxyapatite crystal size and perfection based on the line-width measurements (B002) made at the half maximum point of the c-axis 002 reflection at 25.8° 2.phi.. […] As a consequence, crystals formed in the metaphyses of the treated animals were similar to those found in the more mature diaphyses.

bone cell models = experiment: Cytotoxicity in bone cell models; type: cell-based
Source text: as §1

[2] = system: long bones (metaphyses and diaphyses); experiment: Bone Ga, Ca, P content and ash weight of bone fragments from gallium-treated rats; type: in vivo, Sprague-Dawley rats; settings: for bone calcium content vs nontreated: 7 injections of 5 mg over 14 days; for Ga content of bone: gallium treated rats, n=6, 20160 min
Procedure: as §2
Gallium content in bone was measured by flameless atomic absorption spectrophotometry. Inorganic phosphorus was measured spectrophotometrically.
In subsequent experiments, rats were given 7 injections with 5 mg gallium nitrate over 14 days. […] As expected, increased calcium content was measured in the heavier density fraction >2.0 g/cc (220±31 vs 132±42 ug Ca/mg bone) which contained the more mineralized and more mature hydroxyapatite crystalline material.

[3] = continuous infusion; Warrell 1983, Leyland-Jones 1983; cited from earlier work
bone turnover = experiment: Bone turnover in patients with bone metastases on short term gallium nitrate infusion; type: in vivo, human (patients with bone metastases)
Procedure: (§3) These additional experiments were performed to permit evaluation of bone turnover in patients with bone metastases, in response to short term infusion of gallium nitrate.
Seventeen infusions were administered to fifteen patients, five of whom were hypercalcemic. Gallium nitrate was administered as a continuous infusion at daily doses ranging from […], over 5-7 days. Bone turnover was assessed by serial measurements of urinary levels of Ca^2+, hydroxyproline (OHP), and creatinine (Cr), as well as the serum levels of osteocalcin (BGP). […] Mean reduction was 70±18%. Eight patients with increased bone turnover (i.e., a urinary OHP/Cr ratio greater than 6.0), received eleven drug infusions. […] Mean reduction was 49±22%.

[4] = Body weight in gallium nitrate injected rats (lack of toxicity); type: in vivo, Sprague-Dawley rats; settings: 0.5 or 5.0 mg i.p. every other day, end of 14 day schedule
Procedure: as §2, with “The suspension was centrifuged in the cold at 100 x G for 15 minutes. The suspended particles, representing newly formed mineral bone, density <2.0 g/cc were removed, washed with acetone then dried. The pelleted particles, density >2.0 g/cc were similarly washed with acetone and dried.” left out

bone calcium = settings: humans; application Ser. No. 622,726; cited from earlier work
total serum calcium = experiment: Comparative effect of calcitonin and gallium nitrate on total serum calcium; type: in vivo; settings: one patient; calcitonin many times over recommended dose; FIG. 1
Procedure: Comparative studies were performed as to the effect of Calcitonin on total serum calcium, compared to gallium nitrate in a patient with severe life-threatening hypercalcemia due to bone metastases.

bone resorption = experiment: Inhibition of bone resorption by gallium nitrate; settings: direct effect
Procedure: as §3

## CC(O)(P(=O)(O)O)P(=O)(O)O [EHDP]
bone; Schenk et al. 1973
  bone mineralization: blocks normal bone mineralization and leads to formation of disordered and inadequately calcified bone (osteomalacia)

## O=P(O)(O)C(Cl)(Cl)P(=O)(O)O [dichloromethylenediphosphonate]
[1]
  leukemia: increased development of leukemia

## F [fluoride]
bone; Jowsey et al. 1968
  bone structure: highly abnormal (lamellar-type) bone structure which is less strong relative to normal bone

## O=[N+]([O-])[O-].O=[N+]([O-])[O-].O=[N+]([O-])[O-].[Ga+3] [gallium nitrate]
Bone tissue; histology
  cytotoxic effect at light microscopic level: no evidence of cytotoxic effect
Bone tissue; stained sections
  matrix or mineral components: no alteration in matrix or mineral components
Bone hydroxyapatite; all samples, scan 4° to 70° 2.phi.
  mineral phases detected: The only phase detected in all samples was hydroxyapatite
Bone hydroxyapatite; diaphyses
  BOO2 (002 line width at half maximum): 0.50 ± .03 degrees
Bone hydroxyapatite; metaphyseal particles
  B002 vs control: differed significantly
Bone hydroxyapatite; metaphyses
  BOO2 (002 line width at half maximum): 0.50 ± .03 degrees
Bone hydroxyapatite; metaphyses, region of more active bone mineralization
  hydroxyapatite crystal size/perfection: larger or more perfect crystals
Bone cell models; 3H-amino acid labeled cell homogenates
  protein banding patterns on SDS-PAGE, treated vs untreated: no differences
Bone cell models; 48 hours, up to 25 uM
  cell numbers or viability: Little change in cell numbers or viability
Bone cell models; conclusion
  action as consequence of cytotoxic effect on bone cells: not a consequence of a cytotoxic effect on bone cells
[2]; 7 injections with 5 mg gallium nitrate over 14 days
  mineral content (ash weights), treated vs control: not significantly different
[2]; bone fragments, different total doses
  site of greatest gallium uptake: metaphyseal bone
[2]; diaphyseal fragments
  bone calcium content vs nontreated: No differences in calcium content
[2]; diaphyses
  Ga content of bone: 149 ± 30 ng/mg
[2]; gallium:calcium ratio, different total doses
  gallium incorporation into bone: incorporated into bone in very low amounts
[2]; heavier density fraction >2.0 g/cc
  Ca content of density fraction: 220±31 ug Ca/mg bone
[2]; heavier density fraction >2.0 g/cc (comparator of the 'vs.')
  Ga content of density fraction: 2.9±0.4 ug Ga/mg Ca
[2]; lighter bone fraction, <2.0 g/cc (newly synthesized mineral)
  Ga content of density fraction: 3.2±0.2 ug Ga/mg Ca
[2]; lighter fraction <2.0 g/cc (comparator of the 'vs')
  Ca content of density fraction: 132±42 ug Ca/mg bone
[2]; metaphyses
  Ga content of bone: 384 ± 69 ng/mg
  bone calcium content vs nontreated: statistically significant increase in bone calcium content
[3]
  safety of administration: safe and non-toxic
Bone turnover; 6 patients with bone turnover not elevated
  urinary OHP/Cr ratio: no significant change
Bone turnover; 8 patients with increased bone turnover (OHP/Cr > 6.0)
  urinary OHP/Cr ratio: All patients showed a decrease in OHP/Cr
Bone turnover; 8 patients with increased bone turnover (OHP/Cr > 6.0), 11 infusions
  mean reduction of urinary OHP/Cr ratio: 49±22%
Bone turnover; after each infusion in all 15 patients
  urinary 24 hour Ca2+ excretion: markedly reduced after each infusion in all 15 patients
Bone turnover; cancer patients with bone metastases
  accelerated bone loss: reduces accelerated bone loss
Bone turnover; continuous infusion 100-300 mg daily over 5-7 days, 15 patients
  mean reduction of urinary 24 hour Ca2+ excretion: 70±18%
[4]
  body weights or weight gained, treated vs nontreated: no differences
Bone calcium
  excessive loss of bone calcium: effective in reducing excessive loss of bone calcium
Total serum calcium
  reduction of elevated serum calcium vs calcitonin: distinctly greater effect on reducing elevated serum calcium
Bone resorption
  bone resorption: directly inhibits bone resorption

## calcitonin
bone; parenteral
  rate of bone resorption: transient decrease in the rate of bone resorption
bone; repetitive injections, Gruber et al.
  bone mineral content (densimetric): increase bone mineral content
bone; tachyphylaxis
  duration of anti-resorptive effect: short-lived
